Assay results published in PMC10307035, “Antiviral activity of singlet oxygen-photogenerating perylene compounds against SARS-CoV-2: Interaction with the viral envelope and photodynamic virion inactivation” (Virus Research, 2023).

Assays:
[1] = ROS generation rate / quantum yield, DPBF bleaching in methanol; assay type: physicochemical; details: for φROS (ROS generation quantum yield): in methanol, DPBF trap, 450–470 nm illumination, riboflavin as reference
Excerpt: The ROS generation rate was estimated using the spectrophotometric method, based on the absorption changes of 1,3-diphenylisobenzofuran (DPBF, Sigma Aldrich, Germany) in methanol solution. Irreversible oxidation of DPBF by singlet oxygen results in peroxide formation, and DPBF bleaching. When light of 400–450 nm was used as actinic, DPBF bleaching occurred without any photosensitizer (PS) in solution. Therefore, to study photosensitized ROS generation, we used a white MCWHLP1 LED (Thorlabs, USA) with filters to limit the radiation to the 450–470 nm range (5.5 mW/cm^2).
Spectrophotometric measurements were performed in a Qpod 2e (Quantum Northwest, USA) thermostated cuvette holder at 25 °C with magnetic stirring (500 rpm). Absorption spectra were recorded using a MayaPro spectrophotometer (Ocean Optics, USA) and a stabilized white light source with a SLS201L tungsten lamp (Thorlabs, USA). Illumination was uniform over the entire volume of the cuvette, to prevent artifacts associated with the diffusion of non-reacted components into the illuminated volume of the cuvette. In this case, the rate of irreversible bleaching of DPBF (412 nm) was the same under both continuous and pulsed irradiation with equal total irradiation time. Illumination was performed in a pulsed mode (Fig. S5A), with 1 s of illumination followed by 5 s of dark adaptation, during which the absorption spectrum of the PS-DPBF solution was recorded. Data processing was performed as previously described ([Gvozdev et al., 2020]).

[2] = Fluorescence quantum yield determination; assay type: physicochemical; details: in DMSO, relative to rhodamin B
Method: The samples’ steady-state fluorescence characteristics were measured in L-format using a Chronos DFD Fluorescence spectrometer (ISS, USA) equipped with a 300 W Cermax xenon arc lamp (ISS, USA), a concave holographic grating monochromator, and a PMT detector. The required amount of each sample was diluted in DMSO and measured in a 1-cm quartz cuvette at a constant temperature of 25 °C. The resulting data were evaluated using Vinci software (ISS, USA) and correlated to the utilized optical configuration.
Absorption spectra were measured using a high-performance Specord S 600 diode spectrophotometer (Jena Analyst, DE). The required amount of each sample was diluted in DMSO, added to 1-cm quartz cuvette, and measured within the selected absorbance spectrum range, against pure DMSO as a blank, at a constant temperature of 25 °C. The results were evaluated using WinASPECT® software (Jena Analyst, DE).
Fluorescence quantum yield was determined following a previously described protocol ([Kozma et al., 2005]; [Magde et al., 1999]; [Williams et al., 1983]). The kinetics of the incorporation of compounds into liposome membrane models was determined using steady-state fluorescence spectroscopy at a constant excitation and emission wavelength, according to the corresponding sample excitation and emission maxima. We added 50 μL of LNP suspension to 0.1 mM of the analyte in PBS, and monitored the increase of fluorescence intensity over the time range from 0 to 1400s. The preparation and characterization of the liposomal suspension is described in the supporting information (Fig. S4).
1. Supplementary material and methods
1.1. Fluorescence quantum yield (QY) determination
The steady-state fluorescence and absorption data were used for quantum yield determination. QY was determined relative to a reference compound, rhodamin B. Absorbance in the range of 0.01–0.1 was used to calculate the QY. We plotted two calibration curves of integrated emission fluorescence intensity as a function of sample absorbance. […]

[3] = Spectrofluorometric analysis of interaction with liposomes; assay type: physicochemical; details: for penetration into liposomal membranes (in words): EPC/Chol 70/30 mol% liposomes
CaCo-2 cells = test: Cytotoxicity assay (Cell Counting Kit-8) in CaCo-2 cells; assay type: cell-based, human; details: up to 10 µM
Method: (§1) To determine the overall cytotoxicity of the tested compounds, Vero cells were cultured for 24 h in 96-well plates to form a confluent monolayer, and then were treated with the tested compounds at concentrations of 2 and 10 µM. After 48 h of cultivation in the dark at 37 °C under 5% CO2, the cell culture medium was aspirated. The potential cytotoxicity of the tested perylene derivatives was determined based on cell viability using Cell Counting Kit-8 (Dojindo Molecular Technologies, Munich, Germany) according to the manufacturer's instructions. The cell viabilities of compound-treated Vero cells were compared with those of control DMSO-treated cells. We also used the above-described protocol to assess the cytotoxicity of the selected perylene antivirals, at concentrations ranging from 0 to 10 µM, in CaCo-2 and CRFK cells.

CRFK cells = test: Cytotoxicity assay (Cell Counting Kit-8) in CRFK cells; assay type: cell-based, Felis catus; details: up to 10 µM
Method: as §1

[4] = tested on: SARS-CoV-2 (Wuhan strain); test: Viral titer inhibition assay, SARS-CoV-2 in CaCo-2 cells; assay type: cell-based; details: 0–10 µM
[5] = tested on: feline infectious peritonitis virus (FIPV); assay type: cell-based, feline coronavirus (FCoV); details: 0–10 µM
[6] = ROS generation measurement with DMA trap in DMSO; assay type: physicochemical; details: for ROS generation, DMA trap, under blue light: 465–480 nm, 30 mW/cm^2, 10 min
Method: ROS generation was also estimated using 9,10-dimethylanthracene (DMA), another specific fluorescent singlet oxygen trap, which forms nonfluorescent 9,10-dimethylanthracene endoperoxide after ROS-mediated DMA oxidation. Compounds (0, 0.1, 1, and 10 µM) in DMSO were mixed with DMA (0.5 µM), and these solutions were irradiated for 10 min at room temperature (RT) with light-emitting diodes (LED, 465–480 nm) having approximate power density of 30 mW/cm^2 (device description in Fig. S7). DMA fluorescence intensity was measured at ex/em wavelengths of 370/432 nm in the presence or absence of α-tocopherol (3 µg/mL) as an antioxidant. Singlet oxygen generation was accompanied by a decreased fluorescence signal of the DMA probe ([Zeng et al., 2020]).

SARS-CoV-2 = test: Photodynamic inactivation of SARS-CoV-2 virions; assay type: cell-based; details: for antiviral activity after blue light irradiation of virus-compound mixture: 465–480 nm, 30 mW/cm^2, 10 min, then 60 min at 37 °C in the dark, plaque assay
Method: Virus in DMEM (titer of 10^5 PFU/mL) was mixed with the compounds (0–10 µM) in a microtiter plate, in triplicate, and irradiated for 10 min at RT with LEDs (465–480 nm) having an approximate power density of 30 mW/cm^2 (device description in supplement). As a negative control, virus was incubated for 10 min in the dark at RT. Subsequently, both irradiated and non-irradiated virus samples were incubated in the dark at 37 °C for 60 min. All manipulation with the samples before and after this incubation, i.e., mixing the compound with the virus, pipetting into a microtiter plate, etc., were performed in daylight. Viral titers were determined by plaque assays (performed also in daylight) and expressed as PFU/mL, as previously described ([Stefanik et al., 2021]). To eliminate the influence of daylight on compound activity, the whole experiment, including all manipulation with samples, was performed in a dark room under red light. The virus sample was mixed with the indicated compounds at concentrations from 0 to 10 μM or 100 μM, incubated for 60 min at 37 °C and virus viability was evaluated using a plaque assay (Fig. 9A).

Vero cells [7] = test: Light-induced cytotoxicity in Vero cells; assay type: cell-based, African Green Monkey; details: 0–10 µM, 465–480 nm 10 min, then 24 h in the dark
Method: To determine the light-induced cytotoxicity of the tested compounds, Vero cells were cultured for 24 h in 96-well plates to form a confluent monolayer, and then were treated with the tested compounds at concentrations of 0 to 10 µM. Then, the compound-treated cells were irradiated for 10 min at RT with LEDs (465–480 nm) having an approximate power density of 30 mW/cm^2 (device description in Fig. S7). As a negative control, compound-treated cells were incubated for 10 min in the dark at RT. Subsequently, both irradiated and non-irradiated cell monolayers were incubated in the dark at 37 °C for 24 h. Then, the cell culture medium was aspirated and the potential cytotoxicity of the tested perylene derivatives was determined based on cell viability using Cell Counting Kit-8 (Dojindo Molecular Technologies, Munich, Germany) according to the manufacturer's instructions.

[8] = parameters: method as in Magde et al., 1999; details: Water; λ = 514 nm; ref Magde et al., 1999; cited from earlier work
Vero cells [9] = test: Cytotoxicity assay (Cell Counting Kit-8) in Vero cells; assay type: cell-based, African Green Monkey; details: 10 µM, 48 h
Method: as §1

SMILES	φROS (ROS generation quantum yield) [1] [%]	fluorescence quantum yield [2] [%]	penetration into liposomal membranes (in words) ([3]; 10 µM in PBS)	ROS generation, DMA trap, under blue light [6]	antiviral activity after blue light irradiation of virus-compound mixture (SARS-CoV-2)	effect of blue light irradiation on cytotoxicity (Vero cells [7])	also measured
O=C(O)c1ccc(-c2ccc3c4cccc5cccc(c6cccc2c63)c54)s1 [Compound 16]	59.0 ± 1.8	61	penetrated the liposomal membranes very quickly and efficiently	–	–	–	steady-state fluorescence signal after mixing with liposomes ([3]; at 520 nm, after 1400 s, 10 µM in PBS): about 10^5 CPS
O=C(NCCCCO)c1ccc(-c2ccc3c4cccc5cccc(c6cccc2c63)c54)s1 [Compound 17]	59.0 ± 2.4	–	–	significant bleaching	low-nanomolar	dramatically increased	tolerability by CaCo-2 cells (CaCo-2 cells): well-tolerated; tolerability by CRFK cells (CRFK cells): well-tolerated; anti-SARS-CoV-2 activity in CaCo-2 cells [4]: sub-micromolar; replication of FIPV in CRFK cells [5]: potently suppressed the replication; ROS generation, DMA trap, in the dark or with α-tocopherol ([6]; 10 min, dark or α-tocopherol (3 µg/mL)): no/limited bleaching; antiviral effect under red light only (SARS-CoV-2; 100 µM, dark room, red light, 60 min at 37 °C): no antiviral effect; antiviral activity under red light only (SARS-CoV-2; up to 10 µM, dark room, red light, 60 min at 37 °C): completely disappeared
CCN(CC)c1ccc2c(-c3ccccc3C(=O)O)c3ccc(=[N+](CC)CC)cc-3oc2c1.[Cl-] [rhodamin B]	–	–	–	–	–	–	QYr (fluorescence quantum yield of reference) [8]: 31%
CN(C)c1ccc(C#Cc2ccc3c4cccc5cccc(c6cccc2c63)c54)cc1 [Compound 14]	7.1 ± 0.2	8	slow and very gradual	minimal photodynamic activities	viral titer decreased by less than an order of magnitude	no effect	cell viability (in words) (Vero cells [9]): moderately decreased cell viability; photodynamic activity (DPBF trap, in words) ([1]; methanol, 450–470 nm): minimal; solubility in water (in words) [3]: poorly soluble in water; fluorescence intensity after mixing with liposomes ([3]; at 540 nm, 10 µM in PBS): 10^3 CPS
